Drawing on US8003785B2 (Takeda Pharmaceutical Company Limited, priority 2008, dated 2011), this text covers IC50 for 18 molecules.

The experiment addresses T1, PLK1 (Homo sapiens, UniProt P53350).
T1 construct: Full-length, active GST-PLK1 is purified from Sf9 insect cells; made in house; host or cells: Sf9 insect cells
The experiment can be described thus: Biochemical Characterization Assay: HTRF kinase assay, GST-PLK1 phosphorylation of GST-p53. To be noted: GST-PLK1, GST-p53 substrate. Summed up:
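HTRF read-out of p53 phosphorylation: after EDTA stop, anti-phospho-p53 antibody bound 30 min at 37 °C in HEPES pH 7 buffer, with Eu-anti-rabbit/APC-anti-GST detection. Kinase step used full-length Sf9-expressed GST-PLK1 (3 ug/mL) and E. coli GST-p53 substrate, 35 min at 37 °C.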
For orientation: In TR-FRET formats the signal depends on donor and acceptor labels being close together.

T1 sequence (P53350 whole entry): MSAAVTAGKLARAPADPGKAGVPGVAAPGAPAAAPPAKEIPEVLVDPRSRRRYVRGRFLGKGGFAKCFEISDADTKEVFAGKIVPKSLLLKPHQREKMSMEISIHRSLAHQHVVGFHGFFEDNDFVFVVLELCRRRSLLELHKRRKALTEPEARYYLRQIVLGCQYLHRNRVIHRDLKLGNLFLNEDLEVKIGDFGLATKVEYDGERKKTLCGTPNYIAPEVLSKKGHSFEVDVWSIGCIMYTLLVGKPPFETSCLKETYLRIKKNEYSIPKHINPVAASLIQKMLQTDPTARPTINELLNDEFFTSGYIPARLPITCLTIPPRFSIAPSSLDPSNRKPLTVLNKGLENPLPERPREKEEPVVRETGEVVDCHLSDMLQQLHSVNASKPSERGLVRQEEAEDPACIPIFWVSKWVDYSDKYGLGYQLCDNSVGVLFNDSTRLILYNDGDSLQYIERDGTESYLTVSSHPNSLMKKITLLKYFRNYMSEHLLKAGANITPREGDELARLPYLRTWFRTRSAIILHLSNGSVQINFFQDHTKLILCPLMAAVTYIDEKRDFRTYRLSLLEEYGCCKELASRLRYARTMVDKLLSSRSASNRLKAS

Consider `COc1cc(C(=O)NCCc2ccccn2)ccc1Nc1ncc2c(n1)N(C1CCCC1)CC(F)(F)C(=O)N2C` [Example I-116, 4-(9-cyclopentyl-7,7-difluoro-5-methyl-6-oxo-6,7,8,9-tetrahydro-5H-pyrimido[4,5-b][1,4]diazepin-2-ylamino)-3-methoxy-N-(2-pyridin-2-yl-ethyl)-benzamide], for which, under “ATP”, the IC50 (as a rule, the concentration that inhibits the measured activity by half) lay in the range of 0.001 to 0.05 µM.
`COc1cc(C(N)=O)ccc1Nc1ncc2c(n1)N([C@@H]1C[C@H]1c1ccccc1)CC(F)(F)C(=O)N2C` (relative stereo) [Example I-289, 4-[7,7-difluoro-5-methyl-6-oxo-9-(trans-2-phenyl-cyclopropyl)-6,7,8,9-tetrahydro-5H-pyrimido[4,5-b][1,4]diazepin-2-ylamino]-3-methoxy-benzamide] gave an IC50 greater than 5 µM.
Where the note is “ATP”, `COc1cc(C(=O)N[C@@H]2CN(C(=O)OC(C)(C)C)C[C@H]2O)ccc1Nc1ncc2c(n1)N(C1CCCC1)CC(F)(F)C(=O)N2C` [Example I-103, (3R,4R)-3-[4-(9-cyclopentyl-7,7-difluoro-5-methyl-6-oxo-6,7,8,9-tetrahydro-5H-pyrimido[4,5-b][1,4]diazepin-2-ylamino)-3-methoxy-benzoylamino]-4-hydroxy-pyrrolidine-1-carboxylic acid tert-butyl ester] displayed an IC50 of 0.001 to 0.05 µM.
`COc1cc(C(=O)NCCN2CCCC2)ccc1Nc1ncc2c(n1)N(C1CCCC1)CC(F)(F)C(=O)N2C` [Example I-45, 4-(9-cyclopentyl-7,7-difluoro-5-methyl-6-oxo-6,7,8,9-tetrahydro-5H-pyrimido[4,5-b][1,4]diazepin-2-ylamino)-3-methoxy-N-(2-pyrrolidin-1-yl-ethyl)-benzamide] gave an IC50 (ATP) of 0.001 to 0.05 µM.
For the molecule `COc1cc(C(=O)NCc2ccc(C(F)(F)F)cc2)ccc1Nc1ncc2c(n1)N(C1CCCC1)CC(F)(F)C(=O)N2C` [Example I-36, 4-(9-cyclopentyl-7,7-difluoro-5-methyl-6-oxo-6,7,8,9-tetrahydro-5H-pyrimido[4,5-b][1,4]diazepin-2-ylamino)-3-methoxy-N-(4-trifluoromethyl-benzyl)-benzamide], the IC50 (ATP) was 0.5 to 5 µM.
For the setting “ATP”, `COc1cc(C(=O)NC2CCN(Cc3ccccc3)CC2)ccc1Nc1ncc2c(n1)N(C1CCCC1)CC(F)(F)C(=O)N2C` [Example I-122, N-(1-benzyl-piperidin-4-yl)-4-(9-cyclopentyl-7,7-difluoro-5-methyl-6-oxo-6,7,8,9-tetrahydro-5H-pyrimido[4,5-b][1,4]diazepin-2-ylamino)-3-methoxy-benzamide] registered an IC50 of 0.001 to 0.05 µM.
Turning to `CN(C)CCNC(=O)c1ccc(Nc2ncc3c(n2)N(C2CCCCC2)CC(F)(F)C(=O)N3C)cc1` [Example I-264, 4-(9-cyclohexyl-7,7-difluoro-5-methyl-6-oxo-6,7,8,9-tetrahydro-5H-pyrimido[4,5-b][1,4]diazepin-2-ylamino)-N-(2-dimethylamino-ethyl)-benzamide], the IC50 fell in the range of 0.001 to 0.05 µM.
Turning to `COc1cc(C(=O)NC2CCN(C)CC2)ccc1Nc1ncc2c(n1)N(CCOc1ccccc1)CC(F)(F)C(=O)N2C` [Example I-304, 4-[7,7-difluoro-5-methyl-6-oxo-9-(2-phenoxy-ethyl)-6,7,8,9-tetrahydro-5H-pyrimido[4,5-b][1,4]diazepin-2-ylamino]-3-methoxy-N-(1-methyl-piperidin-4-yl)-benzamide], the IC50 lay in the range of 0.051 to 0.5 µM.
For the molecule `CN1C(=O)C(F)(F)CN(C2CCCC2)c2nc(Nc3ccc(C(=O)NC4CCNCC4)cc3F)ncc21` [Example I-230, 4-(9-cyclopentyl-7,7-difluoro-5-methyl-6-oxo-6,7,8,9-tetrahydro-5H-pyrimido[4,5-b][1,4]diazepin-2-ylamino)-3-fluoro-N-piperidin-4-yl-benzamide], the IC50 was in the range of 0.001 to 0.05 µM.
Under “ATP”, `COc1cc(C(=O)NCCNc2ccccc2)ccc1Nc1ncc2c(n1)N(C1CCCC1)CC(F)(F)C(=O)N2C` [Example I-119, 4-(9-cyclopentyl-7,7-difluoro-5-methyl-6-oxo-6,7,8,9-tetrahydro-5H-pyrimido[4,5-b][1,4]diazepin-2-ylamino)-3-methoxy-N-(2-phenylamino-ethyl)-benzamide] came in with an IC50 of 0.051 to 0.5 µM.
`CN1C(=O)C(F)(F)CN(C2CCCCC2)c2nc(Nc3ccc(C(=O)O)cc3)ncc21` [Example I-256, 4-(9-cyclohexyl-7,7-difluoro-5-methyl-6-oxo-6,7,8,9-tetrahydro-5H-pyrimido[4,5-b][1,4]diazepin-2-ylamin)-benzoic acid]: the IC50 lay within 0.001 to 0.05 µM.
Turning to `COc1cc(C(=O)NC2CCN(c3ccccn3)CC2)ccc1Nc1ncc2c(n1)N(C1CCCC1)CC(F)(F)C(=O)N2C` [Example I-108, 4-(9-cyclopentyl-7,7-difluoro-5-methyl-6-oxo-6,7,8,9-tetrahydro-5H-pyrimido[4,5-b][1,4]diazepin-2-ylamino)-3-methoxy-N-(3,4,5,6-tetrahydro-2H-[1,2′]bipyridinyl-4-yl)-benzamide], the IC50 (ATP) is 0.001 to 0.05 µM.
For the molecule `COc1cc(C(=O)N[C@H]2CN(C(=O)OCc3ccccc3)CC[C@@H]2OC)ccc1Nc1ncc2c(n1)N(C1CCCC1)CC(F)(F)C(=O)N2C` (racemic) [Example I-58, rac-(3S,4S)-3-[4-(9-cyclopentyl-7,7-difluoro-5-methyl-6-oxo-6,7,8,9-tetrahydro-5H-pyrimido[4,5-b][1,4]diazepin-2-ylamino)-3-methoxy-benzoylamino]-4-methoxy-piperidine-1-carboxylic acid benzyl ester], the IC50 (ATP) is 0.051 to 0.5 µM.
Consider `COc1cc(C(=O)NCCCN(C)C)ccc1Nc1ncc2c(n1)N(C1CCCC1)CC(F)(F)C(=O)N2` [Example I-154, 4-(9-cyclopentyl-7,7-difluoro-6-oxo-6,7,8,9-tetrahydro-5H-pyrimido[4,5-b][1,4]diazepin-2-ylamino)-N-(3-dimethylamino-propyl)-3-methoxy-benzamide], for which the IC50 (ATP) fell in the range of 0.5 to 5 µM.
Under “ATP”, `COc1cc(C(=O)NCCCN2CCCCC2)ccc1Nc1ncc2c(n1)N(C1CCCC1)CC(F)(F)C(=O)N2C` [Example I-84, 4-(9-cyclopentyl-7,7-difluoro-5-methyl-6-oxo-6,7,8,9-tetrahydro-5H-pyrimido[4,5-b][1,4]diazepin-2-ylamino)-3-methoxy-N-(3-piperidin-1-yl-propyl)-benzamide] showed an IC50 of 0.001 to 0.05 µM.
Where the note is “ATP”, `COc1cc(C(=O)NCCCN)ccc1Nc1ncc2c(n1)N(C1CCCC1)CC(F)(F)C(=O)N2C` [Example I-74, N-(3-amino-propyl)-4-(9-cyclopentyl-7,7-difluoro-5-methyl-6-oxo-6,7,8,9-tetrahydro-5H-pyrimido[4,5-b][1,4]diazepin-2-ylamino)-3-methoxy-benzamide] came in with an IC50 of 0.001 to 0.05 µM.
Molecule `CN1CCC(NC(=O)c2ccc(Nc3ncc4c(n3)N(C3CCCC3)CC(F)(F)C(=O)N4)cc2)CC1` [Example I-134, 4-(9-cyclopentyl-7,7-difluoro-6-oxo-6,7,8,9-tetrahydro-5H-pyrimido[4,5-b][1,4]diazepin-2-ylamino)-N-(1-methyl-piperidin-4-yl)-benzamide] registered an IC50 (ATP) of 0.051 to 0.5 µM.
For the setting “ATP”, `CNC(=O)c1ccc(Nc2ncc3c(n2)N(C2CCC2)CC(F)(F)C(=O)N3C)c(OC)c1` [Example I-3, 4-(9-cyclobutyl-7,7-difluoro-5-methyl-6-oxo-6,7,8,9-tetrahydro-5H-pyrimido[4,5-b][1,4]diazepin-2-ylamino)-3-methoxy-N-methyl-benzamide] had an IC50 of 0.001 to 0.05 µM.
